Assay results taken from the NIST ThermoML archive (doi:10.1016/j.jct.2017.06.001).

Experiment: xn = mol fraction of the nth substance listed
Settings: 100 kPa, Liquid; for speed of sound: Frequency=5 MHz, Pulse-echo method; for mass density: Vibrating tube method

OCCCCCO [1,5-pentanediol] + O
Settings	mass density [kg/m3]	speed of sound [m/s]
288.15 K, x1 = 0.005	998.88	–
288.15 K, x1 = 0.0101	999.03	–
288.15 K, x1 = 0.0196	999.79	–
288.15 K, x1 = 0.0251	1000.47	–
288.15 K, x1 = 0.0304	1001.25	–
288.15 K, x1 = 0.05	1003.56	–
288.15 K, x1 = 0.0769	1005.76	–
288.15 K, x1 = 0.1002	1007.25	–
288.15 K, x1 = 0.1438	1008.43	–
288.15 K, x1 = 0.1845	1008.63	–
288.15 K, x1 = 0.206	–	1706.1
288.15 K, x1 = 0.2108	–	1706.3
288.15 K, x1 = 0.2162	–	1706.4
288.15 K, x1 = 0.2177	–	1706.4
288.15 K, x1 = 0.2203	–	1706.5
288.15 K, x1 = 0.2319	–	1706.5
288.15 K, x1 = 0.2402	–	1706.4
288.15 K, x1 = 0.25	–	1706.2
288.15 K, x1 = 0.2503	1007.9	–
288.15 K, x1 = 0.2599	–	1706
288.15 K, x1 = 0.2695	–	1705.6
288.15 K, x1 = 0.283	–	1705
288.15 K, x1 = 0.3	1006.94	–
288.15 K, x1 = 0.3004	–	1704.1
288.15 K, x1 = 0.3171	–	1703
288.15 K, x1 = 0.3343	1006.2	–
288.15 K, x1 = 0.3398	–	1701.4
288.15 K, x1 = 0.3601	–	1699.8
288.15 K, x1 = 0.3882	–	1697.2
288.15 K, x1 = 0.4171	1004.47	–
288.15 K, x1 = 0.4185	–	1694.2
288.15 K, x1 = 0.4484	–	1690.8
288.15 K, x1 = 0.454	1003.59	–
288.15 K, x1 = 0.4755	–	1687.5
288.15 K, x1 = 0.4893	–	1685.8
288.15 K, x1 = 0.5003	1002.5	–
288.15 K, x1 = 0.508	–	1683.4
288.15 K, x1 = 0.5305	–	1680.3
288.15 K, x1 = 0.5362	1001.6	–
288.15 K, x1 = 0.5516	–	1677.4
288.15 K, x1 = 0.5741	–	1674.2
288.15 K, x1 = 0.5932	–	1671.5
288.15 K, x1 = 0.6177	999.9	–
288.15 K, x1 = 0.6187	–	1667.9
288.15 K, x1 = 0.6383	–	1665
288.15 K, x1 = 0.6478	999.3	–
288.15 K, x1 = 0.6592	–	1662.1
288.15 K, x1 = 0.6819	–	1658.9
288.15 K, x1 = 0.7025	998.2	–
288.15 K, x1 = 0.7043	–	1655.7
288.15 K, x1 = 0.7236	–	1653.1
288.15 K, x1 = 0.7443	–	1650.3
288.15 K, x1 = 0.7504	997.4	–
288.15 K, x1 = 0.7647	–	1647.6
288.15 K, x1 = 0.7836	–	1645.2
288.15 K, x1 = 0.7927	996.5	–
288.15 K, x1 = 0.8018	–	1642.8
288.15 K, x1 = 0.8231	–	1640.1
288.15 K, x1 = 0.8417	–	1637.8
288.15 K, x1 = 0.8605	995.2	–
288.15 K, x1 = 0.8609	–	1635.4
288.15 K, x1 = 0.8783	–	1633.2
288.15 K, x1 = 0.8967	–	1630.9
288.15 K, x1 = 0.9004	994.4	–
288.15 K, x1 = 0.9133	–	1628.7
288.15 K, x1 = 0.9388	–	1625.3
288.15 K, x1 = 0.9496	993.3	–
288.15 K, x1 = 0.9515	–	1623.6
288.15 K, x1 = 0.9651	–	1621.7
288.15 K, x1 = 0.9837	–	1618.9
288.15 K, x1 = 1	992.2	1616.4
293.15 K, x1 = 0.0002	–	1483
293.15 K, x1 = 0.0004	–	1483.8
293.15 K, x1 = 0.0005	–	1484.4
293.15 K, x1 = 0.0008	–	1485.6
293.15 K, x1 = 0.0012	–	1487
293.15 K, x1 = 0.0017	–	1489
293.15 K, x1 = 0.0021	–	1490.8
293.15 K, x1 = 0.0029	–	1493.7
293.15 K, x1 = 0.0037	–	1496.8
293.15 K, x1 = 0.0043	–	1499.2
293.15 K, x1 = 0.005	–	1501.8
293.15 K, x1 = 0.0057	–	1504.5
293.15 K, x1 = 0.0064	–	1506.9
293.15 K, x1 = 0.0071	–	1509.3
293.15 K, x1 = 0.0078	–	1511.9
293.15 K, x1 = 0.0085	–	1514.3
293.15 K, x1 = 0.0091	–	1516.7
293.15 K, x1 = 0.0098	–	1519
293.15 K, x1 = 0.0107	–	1522
293.15 K, x1 = 0.0113	–	1524.2
293.15 K, x1 = 0.012	–	1526.6
293.15 K, x1 = 0.0128	–	1529.1
293.15 K, x1 = 0.0136	–	1531.6
293.15 K, x1 = 0.0143	–	1534
293.15 K, x1 = 0.015	–	1536.2
293.15 K, x1 = 0.0158	–	1538.5
293.15 K, x1 = 0.0165	–	1540.7
293.15 K, x1 = 0.0172	–	1543
293.15 K, x1 = 0.018	–	1545.3
293.15 K, x1 = 0.0189	–	1547.8
293.15 K, x1 = 0.0198	–	1550.5
293.15 K, x1 = 0.0206	–	1552.8
293.15 K, x1 = 0.0214	–	1555.3
293.15 K, x1 = 0.0224	–	1557.8
293.15 K, x1 = 0.0232	–	1560.2
293.15 K, x1 = 0.0241	–	1562.7
293.15 K, x1 = 0.0254	–	1566
293.15 K, x1 = 0.0263	–	1568.5
293.15 K, x1 = 0.0276	–	1571.6
293.15 K, x1 = 0.0285	–	1573.9
293.15 K, x1 = 0.0294	–	1576.1
293.15 K, x1 = 0.0302	–	1578.2
293.15 K, x1 = 0.0314	–	1580.8
293.15 K, x1 = 0.0323	–	1583.1
293.15 K, x1 = 0.0333	–	1585.3
293.15 K, x1 = 0.0343	–	1587.6
293.15 K, x1 = 0.0355	–	1590.1
293.15 K, x1 = 0.0368	–	1592.9
293.15 K, x1 = 0.0383	–	1596.3
293.15 K, x1 = 0.0398	–	1599.2
293.15 K, x1 = 0.0408	–	1601.4
293.15 K, x1 = 0.0418	–	1603.3
293.15 K, x1 = 0.0435	–	1606.5
293.15 K, x1 = 0.0451	–	1609.5
293.15 K, x1 = 0.0472	–	1613.3
293.15 K, x1 = 0.0491	–	1616.6
293.15 K, x1 = 0.0506	–	1619.2
293.15 K, x1 = 0.0528	–	1622.7
293.15 K, x1 = 0.0552	–	1626.4
293.15 K, x1 = 0.0569	–	1629
293.15 K, x1 = 0.0599	–	1633.3
293.15 K, x1 = 0.0612	–	1635.1
293.15 K, x1 = 0.0629	–	1637.4
293.15 K, x1 = 0.0645	–	1639.4
293.15 K, x1 = 0.0665	–	1641.9
293.15 K, x1 = 0.0684	–	1644.3
293.15 K, x1 = 0.0711	–	1647.4
293.15 K, x1 = 0.0738	–	1650.3
293.15 K, x1 = 0.077	–	1653.6
293.15 K, x1 = 0.08	–	1656.5
293.15 K, x1 = 0.0837	–	1659.9
293.15 K, x1 = 0.0871	–	1662.8
293.15 K, x1 = 0.0895	–	1664.7
293.15 K, x1 = 0.0944	–	1668.3
293.15 K, x1 = 0.0974	–	1670.4
293.15 K, x1 = 0.1023	–	1673.5
293.15 K, x1 = 0.1068	–	1676.1
293.15 K, x1 = 0.1108	–	1678.1
293.15 K, x1 = 0.1168	–	1680.9
293.15 K, x1 = 0.121	–	1682.7
293.15 K, x1 = 0.1249	–	1684.1
293.15 K, x1 = 0.1295	–	1685.7
293.15 K, x1 = 0.1356	–	1687.5
293.15 K, x1 = 0.1401	–	1688.7
293.15 K, x1 = 0.1445	–	1689.8
293.15 K, x1 = 0.1521	–	1691.3
